The values that follow come from patent publication US11655216B2 (priority 2016, dated 2023).

For experiment [1], the target named is T1, glutathione-S-transferase (GST) tagged LXRalpha LBD (ligand binding domain) (Homo sapiens, UniProt Q13133).
T1 construct: purchased Invitrogen pv4655
T1 sequence (Q13133 209-447 limits assumed): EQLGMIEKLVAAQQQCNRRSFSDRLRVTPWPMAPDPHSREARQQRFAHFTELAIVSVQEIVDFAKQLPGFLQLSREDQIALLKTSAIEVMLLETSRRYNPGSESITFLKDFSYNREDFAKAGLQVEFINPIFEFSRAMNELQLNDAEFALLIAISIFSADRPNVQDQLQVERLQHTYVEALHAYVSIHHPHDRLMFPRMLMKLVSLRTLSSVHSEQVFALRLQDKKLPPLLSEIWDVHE
As to the kind of experiment: biochemical. The following applies: for LXR alpha IP / EC50: potency (Inflection Point), compound-induced co-activator recruitment, TR-FRET. As for the experimental part:
(§1) While running the LanthaScreen™ TR-FRET Liver X Receptor Coactivator Assay, LXR alpha-LBD or LXR beta-LBD was added to ligand test compounds followed by addition of a mixture of a fluorescein-labelled coactivator peptide and terbium-conjugated anti-GST antibody. After an incubation period at room temperature, TR-FRET (time-resolved fluorescence resonance energy transfer) was measured using a filter-based instrument capable of TR-FRET, e.g. PerkinElmer Envision.
For orientation: In TR-FRET formats the signal depends on donor and acceptor labels being close together.

The target of experiment [2] is T2, glutathione-S-transferase (GST) tagged LXRbeta LBD (ligand binding domain) (Homo sapiens, UniProt P55055).
T2 construct: purchased Invitrogen pv4658
T2 sequence (P55055 222-460 limits assumed): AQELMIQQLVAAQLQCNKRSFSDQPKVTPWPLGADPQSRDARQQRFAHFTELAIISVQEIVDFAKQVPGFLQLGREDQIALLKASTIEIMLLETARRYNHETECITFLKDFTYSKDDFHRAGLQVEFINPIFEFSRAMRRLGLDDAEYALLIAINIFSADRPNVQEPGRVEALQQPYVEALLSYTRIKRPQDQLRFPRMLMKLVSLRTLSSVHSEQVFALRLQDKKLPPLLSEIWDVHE
Put plainly: LanthaScreen TR-FRET Liver X Receptor Coactivator Assay, LXR beta. It is filed as biochemical. Conditions: for EC50: LXR beta IP, potency (Inflection Point), compound-induced co-activator recruitment, TR-FRET; for Emax: read-out: LXR beta actiivty at max dose, efficacy (% Emax) in relation to reference dual agonist T0901317; for LXR beta actiivty at max dose: efficacy (% Emax) in relation to reference dual agonist T0901317. As for the experimental part: as §1

Where [3] appears, read: read-out: LXR alpha actiivty at max dose, efficacy (% Emax) in relation to reference dual agonist T0901317.
[4] abbreviates: efficacy (% Emax) in relation to reference dual agonist T0901317.
[5] abbreviates: efficacy (% Emax) in relation to reference dual agonist T0901317, read-out: LXR alpha actiivty at max dose.

Like-named read-outs stand apart in the source and are kept apart here.

As to `CN(C)C(=O)c1ccc(OCCC2CC23CCN(C(=O)C2(c4ccccc4)CCCN(C(=O)OC(C)(C)C)C2)CC3)cc1Cl` (single isomer, unassigned) [Example 12-4, tert-butyl 3-((R or S)-1-(2-(3-chloro-4-(dimethylcarbamoyl)phenoxy)ethyl)-6-azaspiro[2.5]octane-6-carbonyl)-3-phenylpiperidine-1-carboxylate], the “LXR alpha IP” value in experiment [1] is “No IP”. The Emax in experiment [1] (setting [3]) came out at 0%. For the same compound, in experiment [2], the EC50 came to 182 nM and the Emax worked out at 22%.

With `CN(C)C(=O)c1ccc(OCCCC2CCN(C(=O)[C@](O)(c3ccccc3)C(F)(F)F)CC2)nc1Cl` (single isomer, unassigned) [Example 3-20], the EC50 in experiment [1] (LXR alpha IP) is 2290 nM; in experiment [2] it was 25 nM. The Emax turned out to be 28% in experiment [1] (setting [3]) and 74% in experiment [2].

Consider `COc1cccc(C(O)(C(=O)N2CCC3(CCC(Oc4ccc(C(=O)N(C)C)c(Cl)n4)CC3)CC2)C(F)(F)F)c1` (single isomer, unassigned) [Example 1-3, 2-chloro-N,N-dimethyl-6-(3-((R or S)-3,3,3-trifluoro-2-hydroxy-2-(3-methoxyphenyl)propanoyl)-3-azaspiro[5.5]undecan-9-yloxy)nicotinamide], for which the EC50 in experiment [1] (LXR alpha IP) came out at 1160 nM. Besides, in experiment [1] (setting [4]), the “LXR alpha actiivty at max dose” value was determined as 21%. Also, in experiment [2], the EC50 amounted to 75 nM and the “LXR beta actiivty at max dose” value amounted to 84%.

In experiment [1] (LXR alpha IP), `CC(CCCOc1ccc(C(=O)N(C)C)c(Cl)c1)C1CCN(C(=O)C(O)(c2ccccc2)C(F)(F)F)CC1` (single isomer, unassigned) [Example 26-3, 2-chloro-N,N-dimethyl-4-((S or R)-4-(1-((R or S)-3,3,3-trifluoro-2-hydroxy-2-phenylpropanoyl)piperidin-4-yl)pentyloxy)benzamide] showed an EC50 of 125 nM. The “LXR alpha actiivty at max dose” value in experiment [1] (setting [4]) stood at 48%. Moreover, in experiment [2], the EC50 is 6 nM and the “LXR beta actiivty at max dose” value turned out to be 77%.

As for `COc1cccc(C(O)(C(=O)N2CCC(C(F)CCCOc3ccc(C(=O)N(C)C)c(Cl)c3)CC2)C(F)(F)F)c1` (single isomer, unassigned) [Example 21-1, 2-chloro-4-(4-fluoro-4-(1-((R or S)-3,3,3-trifluoro-2-hydroxy-2-(3-methoxyphenyl)propanoyl)piperidin-4-yl)butoxy)-N,N-dimethylbenzamide], the Emax stood at 27% in experiment [1] (setting [5]) and 75% in experiment [2]. Moreover, the figures for the EC50 in experiment [1] (read-out: LXR alpha IP) and in experiment [2] were 422 nM and 9 nM, respectively.

As to `CN(C)C(=O)c1ccc(OCC[C@H]2CC23CCN(C(=O)[C@@](N)(c2ccccc2)C(F)(F)F)CC3)cc1Cl` (single isomer, unassigned) [Example 12-8, 4-(2-((R or S)-6-((S or R)-2-amino-3,3,3-trifluoro-2-phenylpropanoyl)-6-azaspiro[2.5]octan-1-yl)ethoxy)-2-chloro-N,N-dimethylbenzamide], the EC50 is 2230 nM in experiment [1] (LXR alpha IP) and 135 nM in experiment [2]. Also, the Emax is 23% in experiment [1] (setting [3]) and 67% in experiment [2].

Consider `COc1cccc([C@@](O)(C(=O)N2CCC(C[C@@H](C)CCOc3ccc(C(=O)N(C)C)c(Cl)c3)CC2)C(F)(F)F)c1` (single isomer, unassigned) [Example 27-1, 2-chloro-N,N-dimethyl-4-((R or S)-3-methyl-4-(1-((R or S)-3,3,3-trifluoro-2-hydroxy-2-(3-methoxyphenyl)propanoyl)piperidin-4-yl)butoxy)benzamide], for which the figures for the Emax in experiment [1] (setting [5]) and in experiment [2] were 23% and 70%, respectively. The EC50 was determined as 74 nM in experiment [1] (read-out: LXR alpha IP) and 5 nM in experiment [2].

Take `CN(C)C(=O)c1ccc(OCC2CC3(CCN(C(=O)C(C)(C)c4ccccc4)CC3)C2)cc1Cl` [Example 33-2, 2-chloro-N,N-dimethyl-4-((7-(2-methyl-2-phenylpropanoyl)-7-azaspiro[3.5]nonan-2-yl)methoxy)benzamide]: the “LXR alpha IP” value in experiment [1] is on record as “No IP”. The Emax in experiment [1] (setting [3]) came to 8%. In experiment [2], the EC50 was 220 nM and the Emax was 60%.

Consider `CN(C)C(=O)c1ccc(OCCCCC2CCN(S(=O)(=O)c3ccccc3C(F)(F)F)CC2)nc1Cl` [Example 7-1, 2-chloro-N,N-dimethyl-6-(4-(1-(2-(trifluoromethyl)phenylsulfonyl)piperidin-4-yl)butoxy)nicotinamide], for which the EC50 in experiment [1] (LXR alpha IP) was 776 nM; in experiment [2] it was 36 nM. Moreover, the values for the Emax in experiment [1] (setting [3]) and in experiment [2] were 82% and 138%, respectively.

Consider `CN(C)C(=O)c1ccc(OCCC2CC23CCN(S(=O)(=O)C(C)(C)c2ccccc2)CC3)cc1Cl` (single isomer, unassigned) [Example 12-18, (S or R)-2-chloro-N,N-dimethyl-4-(2-(6-(2-phenylpropan-2-ylsulfonyl)-6-azaspiro[2.5]octan-1-yl)ethoxy)benzamide], for which the EC50 in experiment [1] (LXR alpha IP) is 1180 nM; in experiment [2] it was 80 nM. Besides, the Emax in experiment [1] (setting [3]) turned out to be 27%; in experiment [2] it was 26%.

Regarding `COc1cccc(C(O)(C(=O)N2CCC(C(C)CC(C)COc3ccc(C(=O)N(C)C)c(Cl)c3)CC2)C(F)(F)F)c1` (single isomer, unassigned) [Example 31-2, 2-chloro-N,N-dimethyl-4-(2-methyl-4-(1-((R or S)-3,3,3-trifluoro-2-hydroxy-2-(3-methoxyphenyl)propanoyl)piperidin-4-yl)pentyloxy)benzamide], the “LXR alpha IP” value in experiment [1] is recorded as “No IP”. In experiment [1] (setting [3]), the Emax came to 3%. In experiment [2], the EC50 stood at 19 nM and the Emax stood at 38%.

Take `CN(C)C(=O)c1ccc(OCCC2CC3(CCN(C(=O)C(O)(c4ccccc4)C(F)(F)F)CC3)C2)cc1Cl` (single isomer, unassigned) [Example 34-1, 2-chloro-N,N-dimethyl-4-(2-(7-((R or S)-3,3,3-trifluoro-2-hydroxy-2-phenylpropanoyl)-7-azaspiro[3.5]nonan-2-yl)ethoxy)benzamide]: the EC50 in experiment [1] (LXR alpha IP) came to 551 nM; in experiment [2], 16 nM. In addition, the Emax came out at 46% in experiment [1] (setting [3]) and 113% in experiment [2].

`CC1(C)CCN(C(=O)c2ccc(OCCCCC3CCN(C(=O)C(O)(c4ccccc4)C(F)(F)F)CC3)cc2Cl)C1` (single isomer, unassigned) [Example 8-5, (R or S)-1-(4-(4-(3-chloro-4-(3,3-dimethyl-pyrrolidine-1-carbonyl)phenoxy)butyl)piperidin-1-yl)-3,3,3-trifluoro-2-hydroxy-2-phenylpropan-1-one]: in experiment [1], the “LXR alpha IP” value was “No IP”. The Emax in experiment [1] (setting [3]) was 1%. Further, in experiment [2], the EC50 is 18 nM and the Emax was determined as 27%.

As to `CN(C)C(=O)c1ccc(OCCCC2CCN(C(=O)c3c(F)cccc3F)CC2)nc1Cl` [Example 3-14, 2-chloro-6-(3-(1-(2,6-difluorobenzoyl)piperidin-4-yl)propoxy)-N,N-dimethylnicotinamide], the “LXR alpha IP” value in experiment [1] is given as “No IP”. In experiment [1] (setting [3]), the Emax worked out at 46%. Further, in experiment [2], the EC50 was 160 nM and the Emax is 77%.

As to `CN(C)C(=O)c1ccc(OC2CC(CC3CCN(C(=O)[C@](O)(c4ccccc4)C(F)(F)F)CC3)C2)cc1Cl` (single isomer, unassigned) [Example 37-11, (R or S)-2-chloro-N,N-dimethyl-4-(3-((1-(3,3,3-trifluoro-2-hydroxy-2-phenylpropanoyl)piperidin-4-yl)methyl)cyclobutoxy) benzamide], the EC50 in experiment [1] (read-out: LXR alpha IP) came out at 563 nM; in experiment [2] it was 92 nM. Further, the figures for the Emax in experiment [1] (setting [3]) and in experiment [2] were 33% and 113%, respectively.

On to `CC(C)(C)OC(=O)NC1CN(C(=O)c2ccc(OCCCCC3CCN(C(=O)[C@](O)(c4ccccc4)C(F)(F)F)CC3)cc2Cl)C1` (single isomer, unassigned) [Example 8-11, (R or S)-tert-butyl 1-(2-chloro-4-(4-(1-(3,3,3-trifluoro-2-hydroxy-2-phenylpropanoyl)piperidin-4-yl)butoxy)benzoyl) azetidin-3-ylcarbamate], for which the EC50 was determined as 520 nM in experiment [1] (LXR alpha IP) and 18 nM in experiment [2]. Further, the Emax worked out at 32% in experiment [1] (setting [3]) and 56% in experiment [2].

Take `CN(C)C(=O)c1ccc(OCCC2CC23CCN(C(=O)C2(c4ccccc4C(F)(F)F)CCC2)CC3)cc1Cl` (single isomer, unassigned) [Example 12-6, (R or S)-2-chloro-N,N-dimethyl-4-(2-(6-(1-(2-(trifluoromethyl)phenyl)cyclobutanecarbonyl)-6-azaspiro[2.5]octan-1-yl)ethoxy)benzamide]: the EC50 was 80 nM in experiment [1] (LXR alpha IP) and 4 nM in experiment [2]. Further, the figures for the Emax in experiment [1] (setting [3]) and in experiment [2] were 48% and 68%, respectively.
